Format in all cases: cell-based
In one data set the test system is HBeAg. The experiment in a line: PHH HBV natural infection assay, HBeAg (alphalisa). Conditions: Hepatitis B virus, 72 h, read-out: HBeAg IC50. The procedure: (§1) Detailed procedures regarding primary human hepatocyte (PHH) HBV natural infection assay are described as below. One tube of frozen PHH (10 million cells) is thawed in 37° C. water bath and then transferred to 20 mL of PHH thawing medium (Sigma, InVitroGRO HT Medium, Cat. S03319) with gently mixing. The cells were then centrifuged at […] for 5 min, the supernatant was discarded and the tube was refilled with 25 mL of PHH plating medium (Sigma, InVitroGRO CP Medium, Cat. S03317). The tube was shaken very gently to re-suspend all cells, and then 50 μl of cells were transferred to each well 384-well collagen I coated plate with appropriate liquid handling equipment, e.g. Integra VIAFLO384 or Agilent Bravo. The cells were then cultured for 24 hours in a cell incubator. For HBV infection, after PHH attachment on the culture plate, the plating medium was removed and replenished with PHH culture medium containing HBV virus. The PHH culture medium was prepared with Dulbecco's Modified Eagle Medium (DMEM)/F12 (1:1 in volume ratio) containing 10% fetal bovine serum (Gibco, Cat.10099141), 5 ng/mL human epidermal growth factor (Gibco, Cat.PHG0311L), 20 ng/mL dexamethasone (Sigma, Cat.D4902-100 mg), 250 ng/mL human recombinant insulin (Gibco, Cat.41400045) and 100 U/mL penicillin. HBV virus at 200 genome equivalent (GE) per cell with 4% PEG8000 (Sigma, Cat.P1458) containing culture medium were added to the PHH culture medium for infection. The cells were then cultured for 24 hours in cell incubator. Then the cell culture supernatant was removed. The HBV-infected PHH were cultured with sandwich culture method with PHH culture medium containing 1% DMSO and 0.25 mg/mL matrix gel for 72 hours. The supernatant was then refreshed with PHH culture medium containing different concentrations of testing compounds for two times with 72-hour interval. At the end of treatment, the supernatant was collected for viral markers measurements, including HBsAg, HBeAg, HBV DNA and cytotoxicity. HBsAg and HBeAg were detected using alphalisa method using their specific antibodies. For HBV DNA detection, HBV DNA Quantitative Fluorescence Diagnostic Kit (Sansure Biotech Inc.) was used following the manufacture's protocol. Cytotoxicity was determined using Cell Counting Kit-8 (CCK8, Dojindo Molecular Technologies, Inc.).
(§2) The compounds of the present invention were tested for their capacity to inhibit HBsAg and HBeAg as described herein.

Another data set deals with HBsAg. The experiment in a line: PHH HBV natural infection assay, HBsAg (alphalisa). Conditions: Hepatitis B virus, 72 h, read-out: HBsAg IC50. The procedure:
as §1, §2

Data set [1] can be described thus: PHH natural infection assay, cytotoxicity (Cell Counting Kit-8). Conditions: human; HBV-infected PHH, CCK8. The procedure: as §1

`CS(=O)(=O)C1(c2noc(C(=O)NC34CC(c5nc6ccc(Cl)cc6s5)(C3)C4)n2)CC1` [Example 76, N-[3-(6-chloro-1,3-benzothiazol-2-yl)-1-bicyclo[1.1.1]pentanyl]-3-(1-methylsulfonylcyclopropyl)-1,2,4-oxadiazole-5-carboxamide]: the concentration for half-maximal inhibition (IC50) with HBeAg turned out to be 400 nM; in the data set with HBsAg it was 700 nM. In data set [1], this compound displayed a CC50 at 144 h of 4270 nM.
On to `CS(=O)(=O)C1(c2nc(C(=O)NC34CC(c5nc6ccc(Br)cc6s5)(C3)C4)no2)CC1` [Example 77, N-[3-(6-bromo-1,3-benzothiazol-2-yl)-1-bicyclo[1.1.1]pentanyl]-5-(1-methylsulfonylcyclopropyl)-1,2,4-oxadiazole-3-carboxamide], for which the figures for the IC50 with HBeAg and in the data set with HBsAg were 620 nM and 860 nM, respectively. Also, the midpoint of cytotoxicity in data set [1], the CC50 at 144 h, lay at 6490 nM.

These data come from patent US20230391764A1, “BENZOTHIAZOLYL BICYCLO[1.1.1]PENTANE DERIVATIVES FOR THE TREATMENT AND PROPHYLAXIS OF HEPATITIS B VIRUS INFECTION” (Hoffmann-La Roche Inc., priority 2021, published 2023).
